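48-hour exposure; five concentrations; linearly interpolated endpoints. TGI: total growth inhibition.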
Assays:
Experiment in all cases: NCI-60 cell line screen, 48 h
SR leukemia = test system: SR leukemia
SNB-75 CNS = test system: SNB-75 CNS
T-47D breast = test system: T-47D breast
HCC-2998 colon = test system: HCC-2998 colon
ACHN renal = test system: ACHN renal
HT29 colon = test system: HT29 colon
HL-60(TB) leukemia = test system: HL-60(TB) leukemia
TK-10 renal = test system: TK-10 renal
OVCAR-4 ovarian = test system: OVCAR-4 ovarian
SK-MEL-28 melanoma = test system: SK-MEL-28 melanoma
SF-539 CNS = test system: SF-539 CNS
CAKI-1 renal = test system: CAKI-1 renal
COLO 205 colon = test system: COLO 205 colon
HCT-116 colon = test system: HCT-116 colon
786-0 renal = test system: 786-0 renal
PC-3 prostate = test system: PC-3 prostate
RXF 393 renal = test system: RXF 393 renal
SK-MEL-2 melanoma = test system: SK-MEL-2 melanoma
SW-620 colon = test system: SW-620 colon
UACC-257 melanoma = test system: UACC-257 melanoma
HCT-15 colon = test system: HCT-15 colon
HS 578T breast = test system: HS 578T breast
SF-268 CNS = test system: SF-268 CNS
UO-31 renal = test system: UO-31 renal
NCI-H460 lung = test system: NCI-H460 lung
NCI-H226 lung = test system: NCI-H226 lung
SN12C renal = test system: SN12C renal
CCRF-CEM leukemia = test system: CCRF-CEM leukemia
K-562 leukemia = test system: K-562 leukemia
MCF7 breast = test system: MCF7 breast
EKVX NSCLC = test system: EKVX NSCLC
DU-145 prostate = test system: DU-145 prostate
SK-MEL-5 melanoma = test system: SK-MEL-5 melanoma
M14 melanoma = test system: M14 melanoma
SF-295 CNS = test system: SF-295 CNS
OVCAR-5 ovarian = test system: OVCAR-5 ovarian
U251 CNS = test system: U251 CNS
OVCAR-8 ovarian = test system: OVCAR-8 ovarian
MDA-N = test system: MDA-N
MDA-MB-231 breast = test system: MDA-MB-231 breast
HOP-62 NSCLC = test system: HOP-62 NSCLC
OVCAR-3 ovarian = test system: OVCAR-3 ovarian
IGROV1 ovarian = test system: IGROV1 ovarian
MALME-3M melanoma = test system: MALME-3M melanoma
HOP-92 NSCLC = test system: HOP-92 NSCLC
BT-549 breast = test system: BT-549 breast
SNB-19 CNS = test system: SNB-19 CNS
KM12 colon = test system: KM12 colon
A549 NSCLC = test system: A549 NSCLC
NCI-H522 lung = test system: NCI-H522 lung
MDA-MB-435 = test system: MDA-MB-435
A498 renal = test system: A498 renal
UACC-62 melanoma = test system: UACC-62 melanoma
LOX IMVI melanoma = test system: LOX IMVI melanoma
RPMI-8226 leukemia = test system: RPMI-8226 leukemia
NCI-H23 lung = test system: NCI-H23 lung
NCI/ADR-RES ovarian = test system: NCI/ADR-RES ovarian
SK-OV-3 ovarian = test system: SK-OV-3 ovarian

Structure (SMILES): COc1ccc(C(=O)/C=C/c2cc(O)c(O)c(F)c2F)c(OC)c1
- TGI (SR leukemia): 26.8 µM
- TGI (SNB-75 CNS): 79.5 µM
- TGI (T-47D breast): > 100 µM
- TGI (HCC-2998 colon): 16.8 µM
- TGI (ACHN renal): > 100 µM
- TGI (HT29 colon): > 100 µM
- TGI (HL-60(TB) leukemia): 25.5 µM
- TGI (TK-10 renal): 88 µM
- TGI (OVCAR-4 ovarian): > 100 µM
- TGI (SK-MEL-28 melanoma): > 100 µM
- TGI (SF-539 CNS): 65.3 µM
- TGI (CAKI-1 renal): > 100 µM
- TGI (COLO 205 colon): 53.1 µM
- TGI (HCT-116 colon): 27.2 µM
- TGI (786-0 renal): 41.9 µM
- TGI (PC-3 prostate): 40.6 µM
- TGI (RXF 393 renal): 59.6 µM
- TGI (SK-MEL-2 melanoma): 33.6 µM
- TGI (SW-620 colon): > 100 µM
- TGI (UACC-257 melanoma): 41.8 µM
- TGI (HCT-15 colon): 36.6 µM
- TGI (HS 578T breast): > 100 µM
- TGI (SF-268 CNS): > 100 µM
- TGI (UO-31 renal): > 100 µM
- TGI (NCI-H460 lung): 22.8 µM
- TGI (NCI-H226 lung): 56.6 µM
- TGI (SN12C renal): 32.2 µM
- TGI (CCRF-CEM leukemia): 32.9 µM
- TGI (K-562 leukemia): > 100 µM
- TGI (MCF7 breast): 49.1 µM
- TGI (EKVX NSCLC): > 100 µM
- TGI (DU-145 prostate): > 100 µM
- TGI (SK-MEL-5 melanoma): 25.3 µM
- TGI (M14 melanoma): > 100 µM
- TGI (SF-295 CNS): > 100 µM
- TGI (OVCAR-5 ovarian): 95.7 µM
- TGI (U251 CNS): 32.1 µM
- TGI (OVCAR-8 ovarian): > 100 µM
- TGI (MDA-N): 80.3 µM
- TGI (MDA-MB-231 breast): 58.2 µM
- TGI (HOP-62 NSCLC): 92.7 µM
- TGI (OVCAR-3 ovarian): 85.5 µM
- TGI (IGROV1 ovarian): > 100 µM
- TGI (MALME-3M melanoma): 31.3 µM
- TGI (HOP-92 NSCLC): > 100 µM
- TGI (BT-549 breast): 70.5 µM
- TGI (SNB-19 CNS): > 100 µM
- TGI (KM12 colon): 33.5 µM
- TGI (A549 NSCLC): > 100 µM
- TGI (NCI-H522 lung): 30.3 µM
- TGI (MDA-MB-435): 82.9 µM
- TGI (A498 renal): 55.5 µM
- TGI (UACC-62 melanoma): 42.8 µM
- TGI (LOX IMVI melanoma): > 100 µM
- TGI (RPMI-8226 leukemia): 40.8 µM
- TGI (NCI-H23 lung): 41.7 µM
- TGI (NCI/ADR-RES ovarian): 67.7 µM
- TGI (SK-OV-3 ovarian): 98.1 µM
